Laboratory results reported in patent US20130071439A1, “METHODS AND COMPOSITIONS FOR TREATING BIOFILMS” (PRESIDENT AND FELLOWS OF HARVARD COLLEGE, priority 2010, published 2013).

Key:
[1] = tested on: B. subtilis strain NCIB3610; assay: Pellicle (biofilm) formation in liquid biofilm-inducing medium; type: cell-based, Bacillus subtilis; details: for biofilm-inhibition assay for B. subtilis: concentration not given; for effect on pellicle formation / effect on biofilm formation: 3 days
Procedure: (§1) For colony formation on solid medium, cells were first grown to exponential growth phase in LB broth and 3 μl of culture were spotted onto solid MSgg medium containing 1.5% Bacto agar. The plates were incubated at 23° C. For pellicle formation in liquid medium, cells were grown to exponential phase and 6 μl of culture were mixed with 6 ml of medium in a 12-well plate (VWR). Plates were incubated at 23° C. Images of colonies and pellicles were taken using a SPOT camera (Diagnostic Instruments, USA).
To investigate whether mature biofilms produce a factor that triggers biofilm disassembly, the effect of concentrated and partially purified extracts of conditioned medium on pellicle formation when added to fresh medium was assayed. To this end, conditioned medium from an eight-day-old culture was applied to a C18 Sep Pak column. Concentrated eluate from the column was then added to a freshly inoculated culture. […] Further purification of the factor was achieved by eluting the cartridge in step-wise fashion with increasing concentrations of methanol.
D-tyrosine, D-leucine, D-tryptophan, and D-methionine were screened for inhibiting biofilm formation by B. subtilis both in liquid and on solid medium (FIG. 2A, 5, 6).
Next, the minimum concentration (MIC for Minimal Inhibitory Concentration) needed to prevent biofilm formation was determined.

[2] = tested on: B. subtilis strain NCIB3610; assay: Colony biofilm formation on solid MSgg medium; type: cell-based, Bacillus subtilis; details: 4 days
Procedure: as §1

B. subtilis [3] = assay: Effect on cell growth in MSgg medium with shaking; type: cell-based, Bacillus subtilis
[4] = tested on: yqxM operon (strain FC122); assay: Expression of PyqxM-lacZ (β-galactosidase activity); type: cell-based, Bacillus subtilis
Procedure: (§2) Assays of β-galactosidase activity. Cells were cultured in MSgg medium at 37° C. in a water bath with shaking 1 ml of culture was collected at each time point. β-galactosidase activity was determined as described previously (Chai et al., Mol. Microbiol. 67:254 (2008)).

eps operon (strain FC5) = assay: Expression of PepsA-lacZ (β-galactosidase activity); type: cell-based, Bacillus subtilis
Procedure: as §2

[5] = tested on: Pseudomonas aeruginosa PA14; assay: Biofilm formation on polystyrene, crystal violet staining; type: cell-based
Procedure: (§3) Crystal violet staining was done as described previously (O'Toole et al., Mol. Microbiol. 30:295 (1998)) except that the cells were grown in […]. Wells were stained with 500 μl of 1.0% Crystal-violet dye, rinsed twice with 2 ml double-distilled water and thoroughly dried.
P. aeruginosa strain […] was grown in 12-well polystyrene plates for 48 hours at 30° C. in M63 medium containing glycerol (0.2%) and Casamino acids ([…]). Additionally added to the wells were no amino acids (untreated), D-tyrosine or the D-amino acid equimolar mixture. Cells bound to the polystyrene were visualized by washing away unbound cells and then staining with crystal violet. Wells were stained with […] of 1.0% Crystal-violet dye, rinsed twice with 2 ml double-distilled water and thoroughly dried.
(§4) For experiments reported in Table 1, the organism/strain was S.a. Harvard SCO1, the culture medium was TSB and the cell inoculation was at 2×10^9 cfu. For experiments reported in Table 2, the organism/strain was […], the culture medium was M63 and the cell inoculation was at 1.5×10^9 cfu. Biofilm was visualized using the crystal violet method.

P.a. Harvard PA14 = assay: Biofilm (colony architecture) formation on M63 defined solid medium; type: cell-based, Pseudomonas aeruginosa; details: 500 μM (L-tryptophan: concentration not given)
From the text: Similarly to Bacillus subtilis, Pseudomonas aeruginosa forms a complex architecture on defined medium. These complex structures require the proper formation and assembly of the extra-cellular matrix. […] For these experiments, the organism/strain was P.a. Harvard PA14, the culture medium was M63 and the cell inoculation was at 1.5×10^9 cfu.

B. subtilis [6] = assay: Disruption of existing biofilms (3 day-old pellicles); type: cell-based, Bacillus subtilis; details: 3 μM added to 3 day-old culture, 8 hours
cell wall = assay: Incorporation of radioactive amino acids into the cell wall; type: cell-based, Bacillus subtilis; details: 14C-labelled, 10 μCi/ml, 2 h at 37° C.
Procedure: Incorporation of amino acids into the cell wall. Cells in 50 ml of culture at the mid exponential phase of growth were harvested by centrifugation and washed with 0.05 M of phosphate buffer (pH 7) and re-suspended in 5 ml of the same buffer. […] The radioactivity of whole cells and cell wall fraction was monitored, and, at intervals samples were removed. For measurement of incorporation into whole cells, 0.1 ml samples were collected. For measurements of incorporation into cell wall, 0.5 ml samples were collected. The cells were harvested by centrifugation and re-suspended in SM buffer [0.5 M sucrose, 20 mM MgCl2, and 10 mM potassium phosphate at pH (6.8)] containing 0.1 mg/ml lysozyme. The cells were then incubated at 37° C. for 10 min. Next, the resulting protoplasts were removed by centrifugation at 5000 rpm for 10 min, leaving the cell wall material in the supernatant fluid. […] Finally, 10 ml of 5% trichloroacetic acid was added to the whole cell samples and the cell wall material and maintained on ice for at least 30 min. The TCA-insoluble material was collected on Millipore filters (0.22 μm pore size, Millipore) and washed with 5% TCA. The filters were air-dried and placed in scintillation vials and the TCA-insoluble counts per minute were determined using a scintillation counter.

TasA-mCherry = type: cell-based, Bacillus subtilis; details: 6 μM
Procedure: For fluorescence microscopy analysis, 1 ml of culture was harvested. The cells were washed with PBS buffer and suspended in 50 μl of PBS buffer. Cover slides were pretreated with poly L-lysine (Sigma). Samples were examined using an Olympus workstation BX61 microscope. Images were taken using the automated software program SimplePCI and analyzed with program MetaMorph (Universal Imaging Corporation).
The cells were grown to stationary phase with shaking in biofilm-inducing medium in the presence or absence of D-tyrosine (6 μM). […] When the cells were washed by centrifugation, resuspended and then examined by fluorescence microscopy, untreated cells (which were often in clumps) were seen to be intensely decorated with TasA-mCherry. […] The localization of unmodified TasA protein was also analyzed by transmission electron microscopy using gold-labeled anti-TasA antibodies. […] 24-hour-old cultures were incubated without (images 1 and 2) or with (images 3-6) D-tyrosine (0.1 mM) for an additional 12 hours. TasA fibers were stained by immunogold labeling using anti-TasA antibodies, and visualized by transmission electron microscopy as described in the Examples. […] Filled arrows indicate fiber bundles; open arrows indicate individual fibers. The scale bar is 500 nm. The scale bar in the enlargements of images 2, 4 and 6 is 100 nm. […]

TasA fibers = assay: Cell association of TasA fibers by electron microscopy (immunogold); type: cell-based, Bacillus subtilis; details: 0.1 mM, 12 hours, Δeps cells
Procedure: Transmission electron microscopy and immunolabeling. Samples were diluted with distilled water and adsorbed onto a carbon or formvar/carbon coated grid. The grid surface was made hydrophilic prior to use with glow discharge in a vacuum evaporator. Once the specimen was adsorbed onto the film surface, the excess sample was blotted off on a filter paper (Whatman #1) and the grid was floated on 5 μl of stain solution (1-2% aqueous uranyl acetate) for a few minutes and then blotted off. The samples were dried and examined in a Tecnai™ G^2 Spirit BioTWIN microscope at an accelerating voltage of 80 KV. Images were taken with an AMT 2k CCD camera. […]
The cells were grown to stationary phase with shaking in biofilm-inducing medium in the presence or absence of D-tyrosine (6 μM). […] When the cells were washed by centrifugation, resuspended and then examined by fluorescence microscopy, untreated cells (which were often in clumps) were seen to be intensely decorated with TasA-mCherry. […] The localization of unmodified TasA protein was also analyzed by transmission electron microscopy using gold-labeled anti-TasA antibodies. […]

S. aureus (strain SCO1) = assay: Biofilm formation on polystyrene, crystal violet staining; type: cell-based, Staphylococcus aureus; details: 50 μM, 24 hours at 37° C., TSB
Procedure: as §3
The effect of D-amino acids on biofilm formation by other bacteria was examined. The pathogenic bacterium Staphylococcus aureus forms biofilms on plastic surfaces (Otto, Curr. Top. Microbiol. Immunol. 322:207 (2008)), which can be detected by washing away unbound cells and staining the bound cells with crystal violet. […] Additionally added to the wells were no amino acids (untreated), D-tyrosine (50 μM) or the D-amino acid mixture ([…] each). Cells bound to the polystyrene were visualized by washing away unbound cells and then staining with crystal violet.
as §4, with “method. The data is shown below in Tables 1 and 2:” for “method.”
For experiments reported in Tables 3 and 4, the organism/strain was S.a. Harvard SCO1, the culture medium was TSB and the cell inoculation was at 2×10^9 cfu. […]

Pseudomonas aeruginosa = assay: Attached single cells in 6 well plate, Syto-9/SYTOX staining; type: cell-based
Procedure: An alternative method to observe biofilm formation on a 6 well plate with or without D-amino acids and using Syto-9 staining was as follows: Pseudomonas aeruginosa biofilms were washed twice with PBS and then fixed for at least an hour in 5% Glutaraldehyde in PBS. The fixed biofilms were then rinsed once again with PBS and soaked in 0.1% v/v Triton X-100 in PBS (PBST) for 15 minutes. The solution was exchanged with 0.1 nM SYTOX green (Invitrogen) in cold PBST and gently rocked in the dark for at least 15 minutes. Fluorescence images of the biofilms were captured with a Leica DMRX compound microscope using a Xe lamp and a K3 Leica filtercube. […] The amount of attached single cells was quantified using image J. The decrease in the amount of cells attached to the epoxy surfaces soaked with D-aa compared with the L-aa control was substantially more.

[7] = complete inhibition of pellicle formation

Compound: C[C@@H](N)C(=O)O [D-alanine]
- biofilm-inhibition assay for B. subtilis [1]: not effective

Compound: CC(C)C[C@@H](N)C(=O)O [D-Leu, D-leucine]
- effect on pellicle formation ([1]; 8.5 mM added to freshly inoculated culture in biofilm-inducing medium): significant inhibition of biofilm growth
- minimum concentration (MIC) needed to prevent biofilm formation [1, 7]: around 1 mM
- biofilm-inhibition assay for B. subtilis [1]: significant inhibition of biofilm growth
- effect on biofilm formation on solid medium ([2]; 8.5 mM): inhibited biofilm formation
- cell growth (B. subtilis [3]; 8.5 mM): substantially the same as the untreated sample
- yqxM expression ([4]; 8.5 mM): substantially the same as the untreated sample
- eps expression (eps operon (strain FC5); 8.5 mM): substantially the same as the untreated sample

Compound: CSCC[C@H](N)C(=O)O [L-methionine, reference compound]
- effect on biofilm formation ([1]; 5 mM in MSgg medium): Only the D-amino acids were active

Compound: CSCC[C@@H](N)C(=O)O [D-Met, D-methionine]
- effect on biofilm formation ([1]; 2 mM in MSgg medium): active in inhibiting biofilm formation
- minimum concentration (MIC) needed to prevent biofilm formation [1, 7]: around 1 mM
- biofilm-inhibition assay for B. subtilis [1]: significant inhibition of biofilm growth
- inhibition at 10 µM ([5]; Pseudomonas aeruginosa, PA14, 10 μM, 48 h/30° C., Polystyrene, read-out: % Inhibition relative to control (0%, <50%, 50-90%, >90%)): 0%
- inhibition at 100 µM ([5]; Pseudomonas aeruginosa, PA14, 100 μM, 48 h/30° C., Polystyrene, read-out: % Inhibition relative to control (0%, <50%, 50-90%, >90%)): 0%
- inhibition at 500 µM ([5]; Pseudomonas aeruginosa, PA14, 500 μM, 48 h/30° C., Polystyrene, read-out: % Inhibition relative to control (0%, <50%, 50-90%, >90%)): 0%

Compound: N[C@@H](Cc1c[nH]c2ccccc12)C(=O)O [L-tryptophan, reference compound]
- effect on biofilm formation ([1]; 5 mM in MSgg medium): Only the D-amino acids were active
- effect on biofilm formation on defined medium (P.a. Harvard PA14): did not

Compound: N[C@H](Cc1ccc(O)cc1)C(=O)O [D-Tyr, D-tyrosine]
- effect on pellicle formation ([1]; 3 μM added to freshly inoculated culture in biofilm-inducing medium): significant inhibition of biofilm growth
- minimum concentration (MIC/MBIC) needed to prevent biofilm formation [1, 7]: about 100 nM
- biofilm-inhibition assay for B. subtilis [1]: significant inhibition of biofilm growth
- effect on biofilm formation on solid medium ([2]; 3 μM): inhibited biofilm formation
- effect on existing pellicles (B. subtilis [6]): conspicuous breakdown of pellicles
- cell growth (B. subtilis [3]; 3 μM): substantially the same as the untreated sample
- yqxM expression ([4]; 3 μM): substantially the same as the untreated sample
- eps expression (eps operon (strain FC5); 3 μM): substantially the same as the untreated sample
- incorporation into the cell wall (cell wall): incorporated into the cell wall
- cell association of TasA-mCherry (fluorescence microscopy of washed cells) (TasA-mCherry): only low levels of fluorescence
- total accumulation of TasA-mCherry (total fluorescence) (TasA-mCherry; grown to stationary phase): little or no effect
- cell association of TasA fibers (TasA fibers): largely undecorated with TasA fibers
- effect on biofilm formation (S. aureus (strain SCO1)): highly effective in preventing biofilm formation
- effect on biofilm formation ([5]; 10 μM, 48 hours at 30° C., M63): effective in preventing biofilm formation
- effect on biofilm formation on defined medium (P.a. Harvard PA14): inhibited biofilm formation on defined medium
- number of cells attached to the bottom of the biofilm plate (Pseudomonas aeruginosa): dramatic decrease

Compound: N[C@H](Cc1ccccc1)C(=O)O [D-Phe, D-phenylalanine]
- biofilm-inhibition assay for B. subtilis [1]: not effective

Compound: N[C@@H](Cc1ccc(O)cc1)C(=O)O [L-Tyr, L-tyrosine, reference compound]
- effect on biofilm formation on defined medium (P.a. Harvard PA14): did not

Compound: N[C@H](Cc1c[nH]c2ccccc12)C(=O)O [D-Trp, D-tryptophan]
- effect on biofilm formation ([1]; 0.5 mM in MSgg medium): active in inhibiting biofilm formation
- minimum concentration (MIC) needed to prevent biofilm formation [1, 7]: around 1 mM
- biofilm-inhibition assay for B. subtilis [1]: significant inhibition of biofilm growth
- effect on biofilm formation on defined medium (P.a. Harvard PA14): inhibited biofilm formation on defined medium
